# Results as given in US20080293771A1, “AZACYCLYLBENZAMIDE DERIVATIVES AS HISTAMINE-3 ANTAGONISTS” (Wyeth, priority 2007, published 2008).
# Biological target: T1, Human Histamine H3 Receptor (Homo sapiens, UniProt Q9Y5N1)
# T1 construct: expressed in transfected cells; host or cells: HEK293T (stably transfected; membrane preparation)
# Assay: Methyl histamine binding in Human Histamine H3 Receptor Cell Line
# Conditions: read-out: hH3 Binding Ki
# Experimental: Evaluation of Methyl histamine binding in Human Histamine H3 Receptor Cell Line
# The affinity of test compounds for the histamine 3 (H3) receptor is evaluated in the following manner. […] Cells are scraped from the plate, transferred to centrifuge tubes, washed one time in PBS by centrifugation in a Sorvall RT7 Plus centrifuge (2000 rpm 10 minutes, 4° C.). The resulting pellets are stored at −80° C. until ready for use. Cells are re-suspended in buffer (50 mM Tris pH=7.5) and placed in a Dounce homogenizer, douncing ten times to homogenize cells. The homogenate is spun down by centrifugation (Sorvall RT7 Plus, 1800 rpm 10 minutes, 4° C.). The supernatant is placed in a Corex tube and spun down by centrifugation (Sorvall RC 5c Plus, 17,000 rpm 20 minutes, 4° C.). The pellet is resuspended in buffer (50 mM Tris, pH 7.5). Protein concentration (ug/ul) is determined using the Micro-BCA Protein Determination. The binding assay is set up in a 96 well microtiter plate in a total volume of 250 uL. Non-specific binding is determined in the presence of 10 uM clobenpropit. The final radioligand concentration is 1 nM. The test compound is serially diluted using the Beckman Biomek2000 to a final approximate range of 100 uM to 100 pM. Membranes are suspended in buffer, homogenized in 2 bursts of ten seconds using a Vitris mechanical homogenizer set at power setting 5. Ten μg of membranes are added to each well. Following a one hour incubation at 30° C., the reaction is terminated by the addition of ice cold buffer and rapid filtration with a Packard Filtermate Harvester through a GF/B filter pre-soaked with 1% PEI for one hour. The plate is dried for one hour at 37° C. and 60 μL Microscint Scintillant is added to each well. The CPM per well is measured on a Packard Top Count NXT. Ki values are determined in nM. […] CPM values are expressed as % specific binding and plotted vs compound concentration. A curve is fitted using a four-parameter logistic fit and the IC50 value is determined. The Ki is calculated from this using the Cheng-Prusoff equation: […]=IC50/1+(L/Kd) where L=concentration of free radioligand used in the assay, and Kd is the dissociation constant of the radioligand for the receptor. L is determined for each experiment by counting an aliquot of the diluted radioligand (corresponding to that added to each well) and the Kd has previously been determined under identical conditions for this cell line/radioligand.
# T1 sequence (Q9Y5N1 whole entry): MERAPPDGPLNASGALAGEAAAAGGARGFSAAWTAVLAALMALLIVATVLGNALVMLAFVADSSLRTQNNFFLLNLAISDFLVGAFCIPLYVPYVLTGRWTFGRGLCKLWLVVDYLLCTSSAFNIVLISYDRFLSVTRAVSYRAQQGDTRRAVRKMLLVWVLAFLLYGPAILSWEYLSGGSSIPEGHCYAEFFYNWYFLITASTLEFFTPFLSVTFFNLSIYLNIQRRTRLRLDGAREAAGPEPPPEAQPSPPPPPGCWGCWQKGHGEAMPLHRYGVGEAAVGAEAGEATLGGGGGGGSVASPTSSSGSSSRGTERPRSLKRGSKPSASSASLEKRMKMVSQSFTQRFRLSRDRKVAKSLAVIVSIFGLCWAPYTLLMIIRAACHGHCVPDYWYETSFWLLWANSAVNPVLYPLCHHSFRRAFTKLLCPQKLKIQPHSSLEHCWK
row,SMILES,Ki [nM]
1,"CN(C(=O)c1ccc(-n2cc3ccccc3n2)cc1)[C@@H]1CCN(C2CCCC2)C1 [Example 63, N-[(3R)-1-cyclopentylpyrrolidin-3-yl]-4-(2H-indazol-2-yl)-N-methylbenzamide]",≤ 10
2,"CN(C(=O)c1ccc(-n2ncc3ccccc32)cc1)[C@@H]1CCN(C2CCC2)C1 [Example 65, N-[(3R)-1-cyclobutylpyrrolidin-3-yl]-4-(1H-indazol-1-yl)-N-methylbenzamide]",≤ 10
3,"CN(C(=O)c1ccc(-n2ncc3ccccc32)cc1)[C@@H]1CCN(C2CCCC2)C1 [Example 66, N-[(3R)-1-cyclopentylpyrrolidin-3-yl]-4-(1H-indazol-1-yl)-N-methylbenzamide]",10.1 to 50
4,CN(C(=O)c1ccc(-n2ncc3ccccc32)cc1)C1CCNCC1 [Example 68],> 100
5,"CC(C)N1CCC(N(C)C(=O)c2ccc(-n3cc4ccccc4n3)cc2)CC1 [Example 69, 4-(2H-indazol-2-yl)-N-(1-isopropylpiperidin-4-yl)-N-methylbenzamide]",50.1 to 100
6,"CN(C(=O)c1ccc(-n2cc3ccccc3n2)cc1)C1CCN(C2CCCC2)CC1 [Example 71, N-(1-cyclopentylpiperidin-4-yl)-4-(2H-indazol-2-yl)-N-methylbenzamide]",> 100
7,"CC(C)N1CCC(N(C)C(=O)c2ccc(-n3ncc4ccccc43)cc2)CC1 [Example 72, 4-(1H-indazol-1-yl)-N-(1-isopropylpiperidin-4-yl)-N-methylbenzamide]",50.1 to 100
8,"CN(C(=O)c1ccc(Cn2ncc3ccccc32)cc1)[C@@H]1CCN(C2CCCC2)C1 [Example 78, N-[(3R)-1-cyclopentylpyrrolidin-3-yl]-4-(1H-indazol-1-ylmethyl)-N-methylbenzamide]",50.1 to 100
9,"CC(C)N1CCC(N(C)C(=O)c2ccc(Cn3ncc4ccccc43)cc2)CC1 [Example 79, 4-(1H-indazol-1-ylmethyl)-N-(1-isopropylpiperidin-4-yl)-N-methylbenzamide]",50.1 to 100
10,"CN(C(=O)c1ccc(Cn2ncc3ccccc32)cc1)C1CCN(C2CCC2)CC1 [Example 80, N-(1-cyclobutylpiperidin-4-yl)-4-(1H-indazol-1-ylmethyl)-N-methylbenzamide]",> 100
11,"CC(C)N1CCC(N(C)C(=O)c2ccc(-n3cccn3)cc2)CC1 [Example 85, N-(1-isopropylpiperidin-4-yl)-N-methyl-4-(1H-pyrazol-1-yl)benzamide]",> 100
12,"CN(C(=O)c1ccc(-n2cccn2)cc1)C1CCN(C2CCC2)CC1 [Example 86, N-(1-cyclobutylpiperidin-4-yl)-N-methyl-4-(1H-pyrazol-1-yl)benzamide]",> 100
13,"CN(C(=O)c1ccc(-n2cccn2)cc1)C1CCN(C2CCCC2)CC1 [Example 87, N-(1-cyclopentylpiperidin-4-yl)-N-methyl-4-(1H-pyrazol-1-yl)benzamide]",> 100
14,"CC(C)N1CCC(N(C)C(=O)c2ccc(Cn3cccn3)cc2)CC1 [Example 91, N-methyl-N-[1-(1-methylethyl)piperidin-4-yl]-4-(1H-pyrazol-1-ylmethyl)benzamide]",> 100
15,"Cc1nc2ccccc2n1-c1ccc(C(=O)N(C)[C@@H]2CCN(C3CCC3)C2)c(Cl)c1 [Example 106, 2-chloro-N-[(3R)-1-cyclobutylpyrrolidin-3-yl]-N-methyl-4-(2-methyl-1H-benzimidazol-1-yl)benzamide]",10.1 to 50
16,"Cc1nc2ccccc2n1-c1ccc(C(=O)N(C)C2CCN(C(C)C)CC2)cc1F [Example 119, 3-fluoro-N-methyl-4-(2-methyl-1H-benzimidazol-1-yl)-N-[1-(1-methylethyl)piperidin-4-yl]benzamide]",≤ 10
17,"Cc1nc2ccccc2n1-c1ccc(C(=O)N(C)C2CCN(C(C)C)CC2)c(Cl)c1 [Example 121, 2-chloro-N-methyl-4-(2-methyl-1H-benzimidazol-1-yl)-N-[1-(1-methylethyl)piperidin-4-yl]benzamide]",≤ 10

# Second part, the compound after the results:
row,Ki [nM],SMILES
1,10.1 to 50,"Cc1nc2cc(C#N)ccc2n1-c1ccc(C(=O)N(C)[C@@H]2CCN(C3CCCC3)C2)cc1 [Example 56, 4-(5-cyano-2-methyl-1H-benzimidazol-1-yl)-N-[(3R)-1-cyclopentylpyrrolidin-3-yl]-N-methylbenzamide]"
2,> 100,"CN(C(=O)c1ccc(-n2cc3ccccc3n2)cc1)[C@@H]1CCNC1 [Example 60a, (R)-4-Indazol-2-yl-N-methyl-N-pyrrolidin-3-yl-benzamide]"
3,> 100,"CN(C(=O)c1ccc(-n2ncc3ccccc32)cc1)[C@@H]1CCNC1 [Example 60b, (R)-4-Indazol-1-yl-N-methyl-N-pyrrolidin-3-yl-benzamide]"
4,≤ 10,"CC(C)N1CC[C@@H](N(C)C(=O)c2ccc(-n3cc4ccccc4n3)cc2)C1 [Example 61, 4-(2H-indazol-2-yl)-N-[(3R)-1-isopropylpyrrolidin-3-yl]-N-methylbenzamide]"
5,≤ 10,"CN(C(=O)c1ccc(-n2cc3ccccc3n2)cc1)[C@@H]1CCN(C2CCC2)C1 [Example 62, N-[(3R)-1-cyclobutylpyrrolidin-3-yl]-4-(2H-indazol-2-yl)-N-methylbenzamide]"
6,≤ 10,"CC(C)N1CC[C@@H](N(C)C(=O)c2ccc(-n3ncc4ccccc43)cc2)C1 [Example 64, 4-(1H-indazol-1-yl)-N-[(3R)-1-isopropylpyrrolidin-3-yl]-N-methylbenzamide]"
7,> 100,"CN(C(=O)c1ccc(-n2cc3ccccc3n2)cc1)C1CCN(C2CCC2)CC1 [Example 70, N-(1-cyclobutylpiperidin-4-yl)-4-(2H-indazol-2-yl)-N-methylbenzamide]"
8,> 100,"CN(C(=O)c1ccc(-n2ncc3ccccc32)cc1)C1CCN(C2CCC2)CC1 [Example 73, N-(1-cyclobutylpiperidin-4-yl)-4-(1H-indazol-1-yl)-N-methylbenzamide]"
9,> 100,"CN(C(=O)c1ccc(-n2ncc3ccccc32)cc1)C1CCN(C2CCCC2)CC1 [Example 74, N-(1-cyclopentylpiperidin-4-yl)-4-(1H-indazol-1-yl)-N-methylbenzamide]"
10,> 100,"CN(C(=O)c1ccc(Cn2ncc3ccccc32)cc1)[C@@H]1CCNC1 [Example 75, (R)-4-((1H-indazol-1-yl)methyl)-N-methyl-N-(pyrrolidin-3yl)benzamide]"
11,50.1 to 100,"CC(C)N1CC[C@@H](N(C)C(=O)c2ccc(Cn3ncc4ccccc43)cc2)C1 [Example 76, 4-(1H-indazol-1-ylmethyl)-N-[(3R)-1-isopropylpyrrolidin-3-yl]-N-methylbenzamide]"
12,10.1 to 50,"CN(C(=O)c1ccc(Cn2ncc3ccccc32)cc1)[C@@H]1CCN(C2CCC2)C1 [Example 77, N-[(3R)-1-cyclobutylpyrrolidin-3-yl]-4-(1H-indazol-1-ylmethyl)-N-methylbenzamide]"
13,> 100,"CN(C(=O)c1ccc(Cn2ncc3ccccc32)cc1)C1CCN(C2CCCC2)CC1 [Example 81, N-(1-cyclopentylpiperidin-4-yl)-4-(1H-indazol-1-ylmethyl)-N-methylbenzamide]"
14,> 100,"CN(C(=O)c1ccc(Cn2cccn2)cc1)C1CCN(C2CCC2)CC1 [Example 92, N-(1-cyclobutylpiperidin-4-yl)-N-methyl-4-(1H-pyrazol-1-ylmethyl)benzamide]"
15,> 100,"CN(C(=O)c1ccc(Cn2cccn2)cc1)C1CCN(C2CCCC2)CC1 [Example 93, N-(1-cyclopentylpiperidin-4-yl)-N-methyl-4-(1H-pyrazol-1-ylmethyl)benzamide]"
16,10.1 to 50,"Cc1nc2ccccc2n1-c1ccc(C(=O)N(C)[C@@H]2CCN(C(C)C)C2)cc1F [Example 103, 3-fluoro-N-methyl-4-(2-methyl-1H-benzimidazol-1-yl)-N-[(3R)-1-(1-methylethyl)pyrrolidin-3-yl]benzamide]"
17,10.1 to 50,"Cc1nc2ccccc2n1-c1ccc(C(=O)N(C)[C@@H]2CCN(C3CCC3)C2)cc1F [Example 104, N-[(3R)-1-cyclobutylpyrrolidin-3-yl]-3-fluoro-N-methyl-4-(2-methyl-1H-benzimidazol-1-yl)benzamide]"
18,10.1 to 50,"Cc1nc2ccccc2n1-c1ccc(C(=O)N(C)[C@@H]2CCN(C(C)C)C2)c(Cl)c1 [Example 105, 2-chloro-N-methyl-4-(2-methyl-1H-benzimidazol-1-yl)-N-[(3R)-1-(1-methylethyl)pyrrolidin-3-yl]benzamide]"
19,10.1 to 50,"Cc1nc2ccccc2n1-c1ccc(C(=O)N(C)C2CCN(C3CCCC3)CC2)cc1F [Example 120, N-(1-cyclopentylpiperidin-4-yl)-3-fluoro-N-methyl-4-(2-methyl-1H-benzimidazol-1-yl)benzamide]"
